From patent US12291514B1, “Ethyl 2-[9-(2-hydroxypyridin-3-yl)-3,6-diphenyl-1,8-dioxo-3,4,9,10-tetrahydroacridine-10-yl]-acetate as an antimicrobial compound” (KING FAISAL UNIVERSITY, priority 2023, dated 2025)

What was measured:
Type in all cases: cell-based
Conditions in all cases: after 10, 20, 40 and 60 minutes at all dilutions 1:100, 1:200, 1:400, 1:800
Staphylococcus aureus = test: Antimicrobial screening by agar dilution, St. Aereus
Method: (§1) The antibacterial properties of the synthesized compound, ethyl 2-[9-(2-hydroxypyridin-3-yl)-3,6-diphenyl-1,8-dioxo-3,4,9,10-tetrahydroacridine-10-yl]-acetate, were studied by the method of agar dilution. Test solutions of each compound was prepared in concentration of 1% using dimethylformamide as a solvent then they are diluted in physiological solution to obtain the final experimental dilutions 1:100, 1:200, 1:400, 1:800. The effect of these substances are compared with furacillin in a controllable study. The testing microbes used were gram positive bacteria Staphylococcus aureus, gram negative bacteria Pseudomonas aeruginosa and Escherichia coli and Candida albicans fungus. The experiments used for this survey were meat-pentonlu agar (EPA) for cultivation of bacteria and Saburo environment for the fungus. Each experiment used 1 mL of test solution on each plate […]. Two drops of emulsified with microbes feel were added. All experimental samples were taken from the agar after 10, 20, 40, 60 minutes in the environment on the basis of Patrk planted. The bacteria were cultivated at a temperature of 37° C. for 1 day and the mushroom was kept in a thermostat for 2 hours at a temperature of 28° C. Then results were checked.

Escherichia coli = test: Antimicrobial screening by agar dilution, E. Coli
Method: as §1

Pseudomonas aeruginosa = test: Antimicrobial screening by agar dilution, Ps. aeruginosa
Method: as §1

Candida albicans = test: Antimicrobial screening by agar dilution, Candida albicans
Method: as §1

Measured: inhibition activity (in words)

CCOC(=O)CN1C2=C(C(=O)CC(c3ccccc3)C2)C(c2cccnc2O)C2=C1CC(c1ccccc1)CC2=O (stereo not shown) [ethyl 2-[9-(2-hydroxypyridin-3-yl)-3,6-diphenyl-1,8-dioxo-3,4,9,10-tetrahydroacridine-10-yl]-acetate]
highest inhibition activity: all assays above
